According to patent US20230129359A1, “MUSCARINIC RECEPTOR 4 ANTAGONISTS AND METHODS OF USE” (Neurocrine Biosciences, Inc., priority 2020, published 2023):

Molecular target: T1, human M4 receptor (Homo sapiens, UniProt P08173)
T1 construct: expressed in transfected cells; host or cells: CHO cells
T1 sequence (P08173 1-479): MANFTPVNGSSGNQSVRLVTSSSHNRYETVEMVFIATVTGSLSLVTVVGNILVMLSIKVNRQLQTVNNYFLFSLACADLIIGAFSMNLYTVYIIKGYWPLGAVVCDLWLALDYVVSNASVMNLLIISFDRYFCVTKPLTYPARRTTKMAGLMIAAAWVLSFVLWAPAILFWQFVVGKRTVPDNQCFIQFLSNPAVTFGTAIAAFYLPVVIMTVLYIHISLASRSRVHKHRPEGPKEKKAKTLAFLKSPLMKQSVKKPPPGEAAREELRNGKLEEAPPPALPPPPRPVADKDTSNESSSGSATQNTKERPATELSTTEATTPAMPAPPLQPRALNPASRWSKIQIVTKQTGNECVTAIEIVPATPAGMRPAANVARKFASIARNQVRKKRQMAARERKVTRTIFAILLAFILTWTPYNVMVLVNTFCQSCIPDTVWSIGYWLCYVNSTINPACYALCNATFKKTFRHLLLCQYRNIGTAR
Test: Radioligand ([3H]N-methylscopolamine) binding assay, membranes from CHO cells expressing human M4 receptor
Details: Ki against human M4 receptor; membranes from CHO cells; tritiated N-methylscopolamine 1.5 nM; read-out: K
Experimental: Binding affinity (Ki) for the compounds was measured by inhibition of radioligand binding to membranes from CHO cells expressing human M4 receptor. Membranes were prepared by nitrogen cavitation and differential centrifugation as previously described (Hoare et al., Mol. Pharmacol. 2003 March; 63(3): 751-65). The radioligand employed was tritiated N-methylscopolamine, used at a concentration of 1.5 nM. A dose-response of twelve concentrations of compound was used, ranging from […]. The assay buffer was 50 mM HEPES, 100 mM NaCl, 5 mM MgCl2, 1 mM ethylenediaminetetraacetic acid, pH-adjusted to pH 7.4. Membranes, radioligand and compound were incubated together for 90 minutes at 37° C., in a total volume of 150 μL in a 96-well plate. Receptor-bound radioligand was then collected by harvesting the assay over glass fiber filters pretreated with polyethylenimine to trap the cell membranes, using rapid vacuum filtration. Harvesting and radioactivity counting was conducted as previously described (see, e.g., Hoare et al., Mol. Pharmacol. 2003 63(3):751-65); Erratum at Mol. Pharmacol. 2005 July; 68(1): 260).

SMILES	Ki [nM]
C[C@@H]1CN(c2ccc([N+](=O)[O-])cn2)C[C@@H](C)N1C(=O)OC1CC2(C1)CN(Cc1ccccc1)C2 [Compound 164, 2-benzyl-2-azaspiro[3.3]heptan-6-yl (2R,6R)-2,6-dimethyl-4-(5-nitropyridin-2-yl)piperazine-1-carboxylate]	100 to 1000
CCOc1ccc(N2C[C@@H](C)N(C(=O)NC3CC4(C3)CN(Cc3ccccc3)C4)[C@@H](C)C2)cc1 [Compound 284, (2R,6S)-N-{2-benzyl-2-azaspiro[3.3]heptan-6-yl}-4-(4-ethoxyphenyl)-2,6-dimethylpiperazine-1-carboxamide]	100 to 1000
[2H]c1c([2H])c([2H])c(C([2H])([2H])N2CC3(CC(OC(=O)N4[C@H](C)CN(c5ncc(C(F)(F)F)cn5)C[C@@H]4C)C3)C2)c([2H])c1[2H] [Compound 387, 2-[(^2H5)phenyl(^2H2)methyl]-2-azaspiro[3.3]heptan-6-yl (2R,6S)-2,6-dimethyl-4-[5-(trifluoromethyl)pyrimidin-2-yl]piperazine-1-carboxylate]	< 10
CNC(=O)c1cnc(N2C[C@@H](C)N(C(=O)OC3CC4(C3)CN(Cc3ccccc3)C4)[C@@H](C)C2)nc1 [Compound 471, 2-benzyl-2-azaspiro[3.3]heptan-6-yl (2R,6S)-2,6-dimethyl-4-[5-(methylcarbamoyl)pyrimidin-2-yl]piperazine-1-carboxylate]	100 to 1000
C[C@@H]1CN(c2ncc(OC(F)F)cn2)C[C@H](C)N1C(=O)OC1CC2(C1)CN(Cc1ccc(F)cc1)C2 [Compound 465, 2-[(4-fluorophenyl)methyl]-2-azaspiro[3.3]heptan-6-yl (2R,6S)-4-[5-(difluoromethoxy)pyrimidin-2-yl]-2,6-dimethylpiperazine-1-carboxylate]	< 10
C[C@@H]1CN(c2nc3cc(F)ccc3o2)C[C@@H](C)N1C(=O)OC1CC2(C1)CN(Cc1ccccc1)C2 [Compound 442, 2-benzyl-2-azaspiro[3.3]heptan-6-yl (2R,6R)-4-(5-fluoro-1,3-benzoxazol-2-yl)-2,6-dimethylpiperazine-1-carboxylate]	100 to 1000
C[C@@H]1CN(c2ncc(C(=O)N(C)C)cn2)C[C@H](C)N1C(=O)OC1CC2(C1)CN(Cc1ccccc1)C2 [Compound 489, 2-benzyl-2-azaspiro[3.3]heptan-6-yl (2R,6S)-4-[5-(dimethylcarbamoyl)pyimidin-2-yl]-2,6-dimethylpiperazine-1-carboxylate]	100 to 1000
C[C@@H]1CN(c2ccc(F)c(C#N)c2)CCN1C(=O)NC1CC2(C1)CN(Cc1ccccc1)C2 [Compound 12, (2R)-N-{2-benzyl-2-azaspiro[3.3]heptan-6-yl}-4-(3-cyano-4-fluorophenyl)-2-methylpiperazine-1-carboxamide]	10 to 100
C[C@@H]1CN(c2ncc(C(F)(F)F)cn2)C[C@H](C)N1C(=O)OC1CC2(C1)CN(CCC(C)(C)C)C2 [Compound 149, 2-(3,3-dimethylbutyl)-2-azaspiro[3.3]heptan-6-yl (2R,6S)-2,6-dimethyl-4-[5-(trifluoromethyl)pyrimidin-2-yl]piperaizne-1-carboxylate]	100 to 1000
C[C@@H]1CN(c2cnc3ccccc3n2)CCN1C(=O)NC1CC2(C1)CN(Cc1ccccc1)C2 [Compound 224, (2R)-N-{2-benzyl-2-azaspiro[3.3]heptan-6-yl}-2-methyl-4-(quinoxalin-2-yl)piperazine-1-carboxamide]	10 to 100
C[C@@H]1CN(c2cnc(C(F)(F)F)cn2)C[C@H](C)N1C(=O)OC1CC2(C1)CN(Cc1ccc(F)cc1)C2 [Compound 399, 2-[(4-fluorophenyl)methyl]-2-azaspiro[3.3]heptan-6-yl (2R,6S)-2,6-dimethyl-4-[5-(trifluoromethyl)pyrazin-2-yl]piperazine-1-carboxylate]	10 to 100

Other lines, results leading:

Ki [nM]	SMILES
100 to 1000	C[C@@H]1CN(c2ncc(C(F)(F)F)cn2)CCN1C(=O)NC1CC2(C1)CN(Cc1ccc(Cl)cc1)C2 [Compound 257, (2R)-N-{2-[(4-chlorophenyl)methyl]-2-azaspiro[3.3]heptan-6-yl}-2-methyl-4-[5-(trifluoromethyl)pyrimidin-2-yl]piperazine-1-carboxamide]
10 to 100	C[C@@H]1CN(c2cnc(C(F)(F)F)cn2)[C@@H](C)CN1C(=O)OC1CC2(C1)CN(Cc1ccc(Cl)cc1)C2 [Compound 480, 2-[(4-chlorophenyl)methyl]-2-azaspiro[3.3]heptan-6-yl (2R,5S)-2,5-dimethyl-4-[5-(trifluoromethyl)pyrazin-2-yl]piperazine-1-carboxylate]
< 10	C[C@@H]1CN(c2nc3ccc(C(F)(F)F)cc3s2)[C@@H](C)CN1C(=O)OC1CC2(C1)CN(Cc1ccccc1)C2 [Compound 372, 2-benzyl-2-azaspiro[3.3]heptan-6-yl (2R,5S)-2,5-dimethyl-4-[6-(trifluoromethyl)-1,3-benzothiazol-2-yl]piperazine-1-carboxylate]
100 to 1000	C[C@@H]1CN(c2ncc(C(F)(F)F)cn2)CCN1C(=O)NC1CC2(C1)CN(Cc1ccc(F)cc1)C2 [Compound 266, (2R)-N-{2-[(4-fluorophenyl)methyl]-2-azaspiro[3.3]heptan-6-yl}-2-methyl-4-[5-(trifluoromethyl)pyrimidin-2-yl]piperazine-1-carboxamide]
10 to 100	C[C@@H]1CN(C(=O)NC2CC3(C2)CN(Cc2ccccc2)C3)[C@@H](C)CN1c1cnc(C(F)(F)F)cn1 [Compound 37, (2S,5R)-N-{2-benzyl-2-azaspiro[3.3]heptan-6-yl}-2,5-dimethyl-4-[5-(trifluoromethyl)pyrazin-2-yl)piperazine-1-carboxamide]
10 to 100	C[C@@H]1CN(c2nc3ncc(C(F)(F)F)cc3s2)C[C@@H](C)N1C(=O)OC1CC2(C1)CN(Cc1ccccc1)C2 [Compound 432, 2-benzyl-2-azaspiro[3.3]heptan-6-yl (2R,6R)-2,6-dimethyl-4-[6-(trifluoromethyl)-[1,3]thiazolo[4,5-b]pyridin-2-yl]piperazine-1-carboxylate]
100 to 1000	C[C@@H]1CN(c2ncc(C(F)(F)F)cn2)C[C@H](C)N1C(=O)NC1CC2(C1)CN(Cc1cccnc1Cl)C2 [Compound 291, (2R,6S)-N-{2-[(2-chloropyridin-3-yl)methyl]-2-azaspiro[3.3]heptan-6-yl}-2,6-dimethyl-4-[5-(trifluoromethyl)pyrimidin-2-yl]piperazine-1-carboxamide]
10 to 100	C[C@@H]1CN(c2ncc(C(F)(F)F)cn2)C[C@H](C)N1C(=O)OC1(C(F)F)CC2(CN(Cc3ccccc3)C2)C1 [Compound 341, 2-benzyl-6-(difluoromethyl)-2-azaspiro[3.3]heptan-6-yl (2R,6S)-2,6-dimethyl-4-[5-(trifluoromethyl)pyrimidin-2-yl]piperazine-1-carboxylate]
10 to 100	C[C@@H]1CN(c2cc(F)c(F)c(F)c2)CCN1C(=O)NC1CC2(C1)CN(Cc1ccccc1)C2 [Compound 44, (2R)-N-{2-benzyl-2-azaspiro[3.3]heptan-6-yl}-2-methyl-4-(3,4,5-trifluorophenyl)piperazine-1-carboxamide]
10 to 100	C[C@@H]1CN(c2ncc(C(F)(F)F)cn2)C[C@H](C)N1C(=O)NC1CC2(C1)CN(Cc1ccc(Cl)nc1)C2 [Compound 307, (2R,6S)-N-{2-[(6-chloropyridin-3-yl)methyl]-2-azaspiro[3.3]heptan-6-yl}-2,6-dimethyl-4-[5-(trifluoromethyl)pyrimidin-2-yl]piperazine-1-carboxamide]
10 to 100	C[C@@H]1CN(c2ncc(C(F)(F)F)cn2)C[C@H](C)N1C(=O)NC1CC2(C1)CN(Cc1cccnc1)C2 [Compound 303, (2R,6S)-2,6-dimethyl-N-[2-(pyridin-3-ylmethyl)-2-azaspiro[3.3]heptan-6-yl]-4-[5-(trifluoromethyl)pyrimidin-2-yl]piperazine-1-carboxamide]
10 to 100	C[C@@H]1CN(C(=O)NC2CC3(C2)CN(Cc2ccccc2)C3)[C@@H](C)CN1c1ncc(C(F)(F)F)cn1 [Compound 36, (2S,5R)-N-{2-benzyl-2-azaspiro[3.3]heptan-6-yl}-2,5-dimethyl-4-[5-(trifluoromethyl)pyrimidin-2-yl]piperazine-1-carboxamide]
10 to 100	C[C@@H]1CN(c2ncc(C#N)cn2)[C@@H](C)CN1C(=O)OC1CC2(C1)CN(Cc1ccccc1)C2 [Compound 138, 2-benzyl-2-azaspiro[3.3]heptan-6-yl (2R,5S)-4-(5-cyanopyrimidin-2-yl)-2,5-dimethylpiperazine-1-carboxylate]
100 to 1000	C[C@@H]1CN(c2cncc(C(F)(F)F)n2)C[C@@H](C)N1C(=O)OC1CC2(C1)CN(Cc1ccccc1)C2 [Compound 166, 2-benzyl-2-azaspiro[3.3]heptan-6-yl (2R,6R)-2,6-dimethyl-4-[6-(trifluoromethyl)pyrazin-2-yl]piperazine-1-carboxylate]
